The values below come from US12655142B2 (Merck Patent GmbH, priority 2019, dated 2026).

Series [1] is described as follows: Determination of Efflux-Ratio (ER) in Caco-2 cells. The note with it: human, Caco-2, pH 7.4. (Caco-2 cells form a polarised layer with tight junctions and transporters.)
The target of series [2] is T1, GIST430/654 cell line expressing mutated constitutively active cKIT receptor tyrosine kinase (Δ560-576 deletion and V654A point mutation) (Homo sapiens, UniProt P10721, DEL560-576/V654A).
T1 construct: endogenous in cells; host or cells: GIST430/654 cells
As to the kind of experiment: Cellular cKIT autophosphorylation (phospho-Y307-cKIT, Luminex bead assay) in GIST430/654 cells. The series is classed as cell-based. To be noted: compounds 45 min, read-out: GIST 430/654 IC50. In short, it runs like this:
(§1)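 Phospho-Y307 cKIT in lysates was measured on a Luminex bead assay, with total-cKIT capture overnight at 4 °C and phosphospecific plus PE secondary detection. Cells had 45 min exposure to a compound dilution series the day after plating: GIST430 (Δ560-576) or GIST430/654 (Δ560-576/V654A, grown with 100 nM imatinib). IC50 values are relative to 0.3% DMSO-treated cells.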

In a further series the target is T2, c-Kit(V654A) (Homo sapiens, UniProt P10721, V654A).
T2 construct: recombinant human c-Kit, amino acids 544-end containing the V654A mutation; GST (N)
As to the kind of experiment: c-Kit(V654A) assay (33P-ATP filter binding kinase assay). To be noted: recombinant human c-Kit aa 544-end V654A, ATP 200 μM. The series is classed as biochemical. In short, it runs like this: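 Radiometric filter-binding read-out: substrate 33P incorporation counted by scintillation after P30 filtermat washes in 75 mM phosphoric acid and methanol. Enzyme: N-GST recombinant human c-Kit aa 544-end carrying V654A.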

Series [3] is described as follows: Determination of solubility. To be noted: 20 mM Sorensen phosphate buffer, pH 7.4, aqueous buffer, kinetic from dmso stock.
Experimental: In a 96 well filtration plate, 2 μL of a 10 mM solution of the test compound in DMSO is added to 98 μL of 20 mM Sorensen phosphate buffer with pH 7.4. The mixture is incubated at room temperature for 120 min while agitating at 250 rpm followed by centrifugation at 2500 rpm for 3 min. After dilution by a factor of 2, the concentration of the test compound is determined using HPLC/UPLC with detection at a suitable wavelength and by comparison to a corresponding compound standard.
Series [4] concerns the target T3, GIST430 cell line expressing constitutive active cKIT receptor tyrosine kinase (Δ560-576 deletion) (Homo sapiens, UniProt P10721, DEL560-576).
T3 construct: endogenous in cells; host or cells: GIST430 cells
As to the kind of experiment: Cellular cKIT autophosphorylation (phospho-Y307-cKIT, Luminex bead assay) in GIST430 cells. The series is classed as cell-based. The note with it: cKIT autophosphorylation, GIST430 cells, compounds 45 min; read-out: GIST 430 IC50. In short, it runs like this:
as §1

A value given as a limit tells only on which side of the number the result lay.

T3 sequence (P10721 with tags, fused parts or gaps DEL560-576): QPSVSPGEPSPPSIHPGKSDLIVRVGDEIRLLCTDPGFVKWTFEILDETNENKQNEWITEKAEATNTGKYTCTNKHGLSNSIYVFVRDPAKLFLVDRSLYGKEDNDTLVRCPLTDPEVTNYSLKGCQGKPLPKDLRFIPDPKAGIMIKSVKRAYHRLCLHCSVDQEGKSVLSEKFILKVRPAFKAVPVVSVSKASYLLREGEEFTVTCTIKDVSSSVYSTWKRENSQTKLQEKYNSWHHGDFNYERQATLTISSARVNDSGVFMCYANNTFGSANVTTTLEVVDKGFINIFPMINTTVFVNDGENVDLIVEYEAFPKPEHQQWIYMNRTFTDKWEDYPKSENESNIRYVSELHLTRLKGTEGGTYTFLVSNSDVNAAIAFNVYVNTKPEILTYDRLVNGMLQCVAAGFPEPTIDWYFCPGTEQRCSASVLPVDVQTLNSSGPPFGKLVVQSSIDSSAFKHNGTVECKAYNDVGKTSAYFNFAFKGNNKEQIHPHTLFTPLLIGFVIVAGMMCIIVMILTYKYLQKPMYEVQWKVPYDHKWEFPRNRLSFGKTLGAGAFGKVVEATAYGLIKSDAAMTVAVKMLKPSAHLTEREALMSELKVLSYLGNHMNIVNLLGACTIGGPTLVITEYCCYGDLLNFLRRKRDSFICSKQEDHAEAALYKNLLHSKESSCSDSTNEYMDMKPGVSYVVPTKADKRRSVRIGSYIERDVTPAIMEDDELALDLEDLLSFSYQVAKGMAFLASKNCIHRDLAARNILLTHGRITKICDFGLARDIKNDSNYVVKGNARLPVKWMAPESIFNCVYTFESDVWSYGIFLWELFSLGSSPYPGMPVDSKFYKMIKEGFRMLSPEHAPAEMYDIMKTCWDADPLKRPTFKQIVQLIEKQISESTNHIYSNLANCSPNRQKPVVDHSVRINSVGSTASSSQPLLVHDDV
T1 sequence (P10721 with tags, fused parts or gaps DEL560-576/V654A): as the sequence (P10721 with tags, fused parts or gaps DEL560-576) above, with V612A counted along it
T2 sequence (P10721 544-976 V654A): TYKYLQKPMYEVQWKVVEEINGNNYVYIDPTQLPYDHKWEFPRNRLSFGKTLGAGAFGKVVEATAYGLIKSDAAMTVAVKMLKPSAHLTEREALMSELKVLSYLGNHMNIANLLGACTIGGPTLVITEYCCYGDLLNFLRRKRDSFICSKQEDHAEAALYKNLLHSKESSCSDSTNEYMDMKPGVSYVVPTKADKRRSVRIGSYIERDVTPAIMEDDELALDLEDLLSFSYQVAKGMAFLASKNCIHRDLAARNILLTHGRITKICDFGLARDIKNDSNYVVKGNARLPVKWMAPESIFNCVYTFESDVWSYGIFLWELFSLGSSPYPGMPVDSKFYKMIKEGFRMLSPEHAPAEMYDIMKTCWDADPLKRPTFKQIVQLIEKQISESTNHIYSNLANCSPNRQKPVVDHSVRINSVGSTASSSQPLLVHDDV

Usually efflux ratio stands for the permeability from basolateral to apical divided by that in the opposite direction, in the common usage. As usually defined, the solubility is the concentration that dissolves in the medium under given conditions. A higher solubility goes with much dissolved substance. In the case of `c1ccn2c(-c3cc(NCc4ccc(-n5ccnc5)cc4)ncn3)cnc2c1` [A8, (6-Imidazo[1,2-a]23yridine-3-yl-pyrimidin-4-yl)-(4-imidazol-1-yl-benzyl)-amine], in series [1], the efflux ratio at 2 h, 1 μM is less than 15. The IC50 in series [2] is 0.5 µM; on c-Kit(V654A), 0.023 µM. For the same molecule, the solubility at 120 min in series [3] was not below 25 µM.
Turning to `COc1ccn2c(-c3cc(NCc4ccc(N5CCCCC5=O)cc4)ncn3)cnc2c1` [A12, 1-(4-{[(6-{7-methoxyimidazo[1,2-a]24yridine-3-yl}pyrimidin-4-yl)amino]methyl}phenyl)piperidin-2-one], the IC50 in series [2] stood at 1.1 µM; on c-Kit(V654A), 0.087 µM. This molecule came in with a solubility at 120 min in series [3] not below 25 µM.
`c1ccn2c(-c3cc(NCc4ccc(C5=NCCN5)cc4)ncn3)cnc2c1` [A15, [4-(4,5-Dihydro-1H-imidazol-2-yl)-benzyl]-(6-imidazo[1,2-a]pyridin-3-yl-pyrimidin-4-yl)-amine]: the IC50 on c-Kit(V654A) came to 0.32 µM. In series [3], this molecule registered a solubility at 120 min not below 25 µM.
`Cn1cc(-c2ccc(CNc3cc(-c4cnc5cc(OCCN6CCCC6)ccn45)ncn3)cc2)cn1` [A60, [4-(1-methyl-1H-pyrazol-4-yl)-benzyl]-{6-[7-(2-pyrrolidin-1-yl-ethoxy)-imidazo[1,2-a]pyridin-3-yl]-pyrimidin-4-yl}-amine]: in series [1], the efflux ratio at 2 h, 1 μM was less than 15. Moreover, the values for the IC50 (in series [2]; in series [4]; at c-Kit(V654A)) were 0.07 µM, 0.0049 µM and 0.008 µM, respectively. The solubility at 120 min in series [3] is not below 25 µM.
Turning to `Cn1ncc(-c2ccc(CNc3cc(-c4cnc5cc(OCCN6CCCC6)ccn45)ncn3)cc2)n1` [A73, [4-(2-methyl-2H-[1,2,3]triazol-4-yl)-benzyl]-{6-[7-(2-pyrrolidin-1-yl-ethoxy)-imidazo[1,2-a]pyridin-3-yl]-pyrimidin-4-yl}-amine], the efflux ratio at 2 h, 1 μM in series [1] was less than 15. The IC50 in series [2] is 0.098 µM; on c-Kit(V654A), 0.004 µM. Moreover, the solubility at 120 min in series [3] is not below 25 µM.
With `Cn1cc(-c2ccc(CNc3cc(-c4cnc5cc(OCCCN6CCCC6)ccn45)ncn3)cc2)cn1` [A75, [4-(1-methyl-1H-pyrazol-4-yl)-benzyl]-{6-[7-(3-pyrrolidin-1-yl-propoxy)-imidazo[1,2-a]pyridin-3-yl]-pyrimidin-4-yl}-amine], in series [1], the efflux ratio at 2 h, 1 μM is less than 15. The results for the IC50 (in series [2]; in series [4]; at c-Kit(V654A)) were 0.059 µM, 0.0029 µM and 0.0085 µM, respectively. The molecule further had a solubility at 120 min in series [3] not below 25 µM.
With `c1cn(-c2ccc(CNc3cc(-c4cnc5cc(OCC6CCN(C7COC7)CC6)ccn45)ncn3)cc2)nn1` [A83, {6-[7-(1-oxetan-3-yl-piperidin-4-ylmethoxy)-imidazo[1,2-a]pyridin-3-yl]-pyrimidin-4-yl}-(4-[1,2,3]triazol-1-yl-benzyl)-amine], the IC50 in series [2] worked out at 0.31 µM; at c-Kit(V654A) it was 0.025 µM. In series [3], this molecule came in with a solubility at 120 min not below 25 µM.
For the molecule `Cn1ncc(-c2ccc(CNc3cc(-c4cnc5cc(OCCCN6CCCC6)ccn45)ncn3)cc2)n1` [A84, [4-(2-methyl-2H-[1,2,3]triazol-4-yl)-benzyl]-{6-[7-(3-pyrrolidin-1-yl-propoxy)-imidazo[1,2-a]pyridin-3-yl]-pyrimidin-4-yl}-amine], the efflux ratio at 2 h, 1 μM in series [1] is less than 15. Also, the IC50 is 0.045 µM in series [2], 0.0024 µM in series [4] and 0.0028 µM at c-Kit(V654A). In series [3], the solubility at 120 min was not below 25 µM.
Take `Cn1cc(-c2ccc(CNc3cc(-c4cnc5cc(OCCN6CCC6)ccn45)ncn3)cc2)cn1` [A99, 6-{7-[2-(azetidin-1-yl)ethoxy]imidazo[1,2-a]pyridin-3-yl}-N-{[4-(1-methyl-1H-pyrazol-4-yl)phenyl]methyl}pyrimidin-4-amine]: the efflux ratio at 2 h, 1 μM in series [1] fell in the range of 15 to 50. Further, the values for the IC50 (in series [2]; at c-Kit(V654A)) were 0.062 µM and 0.0082 µM, respectively. This molecule displayed a solubility at 120 min in series [3] not below 25 µM.
For `Cn1ncc(-c2ccc(CNc3cc(-c4cnc5cc(OCCN6CCC6)ccn45)ncn3)cc2)n1` [A100, 6-{7-[2-(azetidin-1-yl)ethoxy]imidazo[1,2-a]pyridin-3-yl}-N-{[4-(2-methyl-2H-1,2,3-triazol-4-yl)phenyl]methyl}pyrimidin-4-amine] the same measures were less than 15, 0.038 µM, 0.0092 µM and not below 25 µM.
For the molecule `Cn1ncc(-c2ccc(CNc3cc(-c4cnc5cc(OCCCN6CCC6)ccn45)ncn3)cc2)n1` [A120, {6-[7-(3-azetidin-1-yl-propoxy)-imidazo[1,2-a]pyridin-3-yl]-pyrimidin-4-yl}-[4-(2-methyl-2H-[1,2,3]triazol-4-yl)-benzyl]-amine], in series [1], the efflux ratio at 2 h, 1 μM is less than 15. The IC50 came to 0.052 µM in series [2], 0.0023 µM in series [4] and 0.0029 µM at c-Kit(V654A). The solubility at 120 min in series [3] is not below 25 µM.
Take `c1ccn2c(-c3cc(NCc4ccc(N5CC6CC6C5)nc4)ncn3)cnc2c1` (stereo not shown) [A149, [6-(3-aza-bicyclo[3.1.0]hex-3-yl)-pyridin-3-ylmethyl]-(6-imidazo[1,2-a]pyridin-3-yl-pyrimidin-4-yl)-amine]: the IC50 in series [2] was found to be 0.27 µM; at c-Kit(V654A) it was 0.0062 µM. For the same molecule, the solubility at 120 min in series [3] is not below 25 µM.
For the molecule `F[C@@H]1CCN(c2ccc(CNc3cc(-c4cnc5ccccn45)ncn3)cn2)C1` [A153, N-({6-[(3R)-3-fluoropyrrolidin-1-yl]pyridin-3-yl}methyl)-6-{imidazo[1,2-a]pyridin-3-yl}pyrimidin-4-amine], in series [1], the efflux ratio at 2 h, 1 μM was less than 15. Further, the IC50 was 0.12 µM in series [2], 0.0064 µM in series [4] and 0.0064 µM at c-Kit(V654A). This molecule also had a solubility at 120 min in series [3] not below 25 µM.
For `Cc1cc(N2CCCC2)ncc1CNc1cc(-c2cnc3ccccn23)ncn1` [A154, (6-imidazo[1,2-a]pyridin-3-yl-pyrimidin-4-yl)-(4-methyl-6-pyrrolidin-1-yl-pyridin-3-ylmethyl)-amine], the IC50 on c-Kit(V654A) was found to be 0.18 µM. Besides, the solubility at 120 min in series [3] is not below 25 µM.
For the molecule `Cc1cc(N2CC[C@@H](F)C2)ncc1CNc1cc(-c2cnc3ccccn23)ncn1` [A156, [6-((R)-3-fluoro-pyrrolidin-1-yl)-4-methyl-pyridin-3-ylmethyl]-(6-imidazo[1,2-a]pyridin-3-yl-pyrimidin-4-yl)-amine], at c-Kit(V654A), the IC50 amounted to 0.18 µM. The molecule also displayed a solubility at 120 min in series [3] not below 25 µM.
For the molecule `Cn1cc(-c2ccc(CNc3cc(-c4cnc5cc(CCN6CCCC6)ccn45)ncn3)cc2)cn1` [A168, [4-(1-methyl-1H-pyrazol-4-yl)-benzyl]-{6-[7-(2-pyrrolidin-1-yl-ethyl)-imidazo[1,2-a]pyridin-3-yl]-pyrimidin-4-yl}-amine], the efflux ratio at 2 h, 1 μM in series [1] was less than 15. Further, the IC50 came to 0.63 µM in series [2] and 0.027 µM on c-Kit(V654A). In addition, the solubility at 120 min in series [3] was not below 25 µM.
Consider `Cn1cc(-c2ccc(CNc3cc(-c4cnc5cc(CCN6CCN(C7COC7)CC6)ccn45)ncn3)cc2)cn1` [A170, [4-(1-methyl-1H-pyrazol-4-yl)-benzyl]-(6-{7-[2-(4-oxetan-3-yl-piperazin-1-yl)-ethyl]-imidazo[1,2-a]pyridin-3-yl}-pyrimidin-4-yl)-amine], for which the IC50 in series [2] came out at 0.33 µM; on c-Kit(V654A) it was 0.033 µM. For the same molecule, the solubility at 120 min in series [3] was not below 25 µM.
`Cn1cc(-c2ccc(CNc3cc(-c4cnc5cc(OCCN6CCN7CCC6C7)ccn45)ncn3)cc2)cn1` (stereo not shown) [A212, (6-{7-[2-(1,4-diaza-bicyclo[3.2.1]oct-4-yl)-ethoxy]-imidazo[1,2-a]pyridin-3-yl}-pyrimidin-4-yl)-[4-(1-methyl-1H-pyrazol-4-yl)-benzyl]-amine]: in series [1], the efflux ratio at 2 h, 1 μM was more than 50. Further, the results for the IC50 (in series [2]; on c-Kit(V654A)) were 0.21 µM and 0.0073 µM, respectively. The same molecule displayed a solubility at 120 min in series [3] not below 25 µM.
Turning to `Cc1nc(-c2ccc(CNc3cc(-c4cnc5cc(OCCCN6CCCC6)ccn45)ncn3)cc2)co1` [A242, [4-(2-methyl-oxazol-4-yl)-benzyl]-{6-[7-(3-pyrrolidin-1-yl-propoxy)-imidazo[1,2-a]pyridin-3-yl]-pyrimidin-4-yl}-amine], the efflux ratio at 2 h, 1 μM in series [1] was less than 15. Besides, the IC50 in series [2] was determined as 10 µM; at c-Kit(V654A), 0.0011 µM. In addition, in series [3], the solubility at 120 min was not below 25 µM.
The matching figures for `c1nc(NCc2ccc(-c3cocn3)cc2)cc(-c2cnc3cc(OCCCN4CCCC4)ccn23)n1` [A252, (4-oxazol-4-yl-benzyl)-{6-[7-(3-pyrrolidin-1-yl-propoxy)-imidazo[1,2-a]pyridin-3-yl]-pyrimidin-4-yl}-amine]: less than 15, 0.047 µM, 0.0022 µM and not below 25 µM.
As to `CNC1CN(c2ccn3c(-c4cc(NCc5ccc(-c6cnn(C)c6)cc5)ncn4)cnc3c2)C1` [A268, N-{[4-(1-methyl-1H-pyrazol-4-yl)phenyl]methyl}-6-{7-[3-(methylamino)azetidin-1-yl]imidazo[1,2-a]pyridin-3-yl}pyrimidin-4-amine], the efflux ratio at 2 h, 1 μM in series [1] is less than 15. Besides, the IC50 in series [2] is 0.14 µM; in series [4], 0.01 µM; at c-Kit(V654A), 0.011 µM.
